For assay [1], the system named is Spodoptera litura. The experiment in a line: Larvicidal activity Spodoptera litura third-instar larva fed on 1000 ppm compound pre-treated castor leaf disks for 24 hr followed by larval maintenance on fresh castor leaves assessed as insect mortality measured after 96 hr. Format: functional.
Assay [2] has as its system Spodoptera litura. As to the kind of experiment: Antifeedant activity against Spodoptera litura third-instar larva fed on 1000 ppm compound pre-treated castor leaf disks measured after 24 hr by leaf-disk no-choice method (reference value: 2.09 +/- 0.94%). Type of assay: functional.
Assay [3] relates to Spodoptera litura. As to the kind of experiment: Antifeedant activity against Spodoptera litura third-instar larva fed on 500 ppm compound pre-treated castor leaf disks measured after 24 hr by leaf-disk no-choice method (reference value: 2.09 +/- 0.94%). Format: functional.
Assay [4] deals with Spodoptera litura. As to the kind of experiment: Antifeedant activity against Spodoptera litura third-instar larva fed on 125 ppm compound pre-treated castor leaf disks measured after 24 hr by leaf-disk no-choice method (reference value: 2.09 +/- 0.94%). Type of assay: functional.
Assay [5] concerns Spodoptera litura. The experiment in a line: Pupicidal activity Spodoptera litura third-instar larva fed on 250 ppm compound pre-treated castor leaf disks for 24 hr followed by larval maintenance on fresh castor leaves until pupae formation assessed as pupal mortality (reference value: 8.0 +/- 4.47%). Type of assay: functional.
In assay [6] the test system is Spodoptera litura. As to the kind of experiment: Pupicidal activity Spodoptera litura third-instar larva fed on 1000 ppm compound pre-treated castor leaf disks for 24 hr followed by larval maintenance on fresh castor leaves until pupae formation assessed as pupal mortality (reference value: 8.0 +/- 4.47%). Format: functional.
Assay [7] concerns Spodoptera litura. The experiment in a line: Insecticidal activity Spodoptera litura third-instar larva fed on 125 ppm compound pre-treated castor leaf disks for 24 hr followed by larval maintenance on fresh castor leaves assessed as total mortality (reference value: 8%). Type of assay: functional.
The next assay concerns Helicoverpa armigera. The experiment in a line: Antifeedant activity against Helicoverpa armigera at 1000 ppm. Format: functional.
Assay [8] concerns Spodoptera litura. As to the kind of experiment: Insecticidal activity Spodoptera litura third-instar larva fed on 250 ppm compound pre-treated castor leaf disks for 24 hr followed by larval maintenance on fresh castor leaves assessed as total mortality (reference value: 8%). Format: functional.
Assay [9] deals with Spodoptera litura. As to the kind of experiment: Pupicidal activity Spodoptera litura third-instar larva fed on 500 ppm compound pre-treated castor leaf disks for 24 hr followed by larval maintenance on fresh castor leaves until pupae formation assessed as pupal mortality (reference value: 8.0 +/- 4.47%). Type of assay: functional.
Assay [10] relates to Spodoptera litura. As to the kind of experiment: Antifeedant activity against Spodoptera litura third-instar larva fed on 250 ppm compound pre-treated castor leaf disks measured after 24 hr by leaf-disk no-choice method (reference value: 2.09 +/- 0.94%). Format: functional.
Assay [11] concerns Spodoptera litura. As to the kind of experiment: Antifeedant activity against Spodoptera litura third-instar larva fed on compound pre-treated castor leaf disks measured after 24 hr by leaf-disk no-choice method (reference value: 2.09 +/- 0.94%). Format: functional. As to conditions: for LC50: Spodoptera litura, foliar.
Assay [12] has as its system Spodoptera litura. The experiment in a line: Pupicidal activity Spodoptera litura third-instar larva fed on 125 ppm compound pre-treated castor leaf disks for 24 hr followed by larval maintenance on fresh castor leaves until pupae formation assessed as pupal mortality (reference value: 8.0 +/- 4.47%). Type of assay: functional.
For assay [13], the system named is Spodoptera litura. The experiment in a line: Larvicidal activity Spodoptera litura third-instar larva fed on 500 ppm compound pre-treated castor leaf disks for 24 hr followed by larval maintenance on fresh castor leaves assessed as insect mortality measured after 96 hr. Format: functional.
Assay [14] relates to Spodoptera litura. The experiment in a line: Larvicidal activity Spodoptera litura third-instar larva fed on 125 ppm compound pre-treated castor leaf disks for 24 hr followed by larval maintenance on fresh castor leaves assessed as insect mortality measured after 96 hr. Format: functional.
For assay [15], the system named is Spodoptera litura. The experiment in a line: Larvicidal activity Spodoptera litura third-instar larva fed on 250 ppm compound pre-treated castor leaf disks for 24 hr followed by larval maintenance on fresh castor leaves assessed as insect mortality measured after 96 hr. Format: functional.
In assay [16] the test system is Spodoptera litura. As to the kind of experiment: Insecticidal activity Spodoptera litura third-instar larva fed on 1000 ppm compound pre-treated castor leaf disks for 24 hr followed by larval maintenance on fresh castor leaves assessed as induction of abnormalities. Format: functional, organism-based.
Assay [17] deals with Spodoptera litura. The experiment in a line: Insecticidal activity Spodoptera litura third-instar larva fed on 500 ppm compound pre-treated castor leaf disks for 24 hr followed by larval maintenance on fresh castor leaves assessed as total mortality (reference value: 8%). Format: functional.
In assay [18] the test system is Spodoptera litura. The experiment in a line: Larvicidal activity Spodoptera litura third-instar larva fed on compound pre-treated castor leaf disks for 24 hr followed by larval maintenance on fresh castor leaves assessed as insect mortality measured after 96 hr. Type of assay: functional. As to conditions: for LC50: Spodoptera litura, foliar.
In assay [19] the test system is Spodoptera litura. As to the kind of experiment: Insecticidal activity Spodoptera litura third-instar larva fed on 1000 ppm compound pre-treated castor leaf disks for 24 hr followed by larval maintenance on fresh castor leaves assessed as total mortality (reference value: 8%). Format: functional.
The next assay has as its system Chironomus riparius. The experiment in a line: Larvicidal activity against Chironomus riparius. Type of assay: functional.

Values after ≈ are worked out from the molar mass of the structure shown. Active and inactive are the calls of the source. The rule behind the calls is not given here.

With `O=C1NC(c2c[nH]c3ccc(O)cc23)=C/C1=C1\C(=O)Nc2ccccc21` [VIOLACEIN], the mortality in the assay with Spodoptera litura [1] was determined as 77.1%; in the assay with Spodoptera litura [5], 24%; in the assay on Spodoptera litura [6] it was 22%; in the assay on Spodoptera litura [7], 51.11%; in the assay on Spodoptera litura [8], 77.99%; in the assay on Spodoptera litura [9], 20.7%. The mortality in the assay on Spodoptera litura [12] is on record as 22%; in the assay with Spodoptera litura [13], 68.88%; in the assay with Spodoptera litura [14], 29.11%; with Spodoptera litura [15], 53.99%; with Spodoptera litura [17], 89.58%; with Spodoptera litura [19], 99.1%. In addition, the AFI is reported as 72.46% in the assay with Spodoptera litura [2]; 55.16% in the assay with Spodoptera litura [3]; 28.66% with Spodoptera litura [4]; above 80% in the assay on Helicoverpa armigera; 39.69% in the assay with Spodoptera litura [10]. Moreover, the LC90 in the assay with Spodoptera litura [11] is recorded as 3649.91 ppm; in the assay on Spodoptera litura [18], 2016.71 ppm. Further, the LC50 with Spodoptera litura [11] stood at 392 µg/mL (≈ 1140 µM); in the assay on Spodoptera litura [18] it was 255 µg/mL (≈ 743 µM). Besides, the result in the assay with Spodoptera litura [16] was Active.
Regarding `C/C=C(\C)C(=O)O[C@H]1C[C@@H](OC(C)=O)[C@@]2(C(=O)OC)CO[C@H]3[C@@H](O)[C@@](C)([C@]45O[C@@]4(C)[C@@H]4C[C@H]5O[C@@H]5OC=C[C@@]54O)[C@H]4[C@]1(CO[C@]4(O)C(=O)OC)[C@@H]32` [AZADIRACHTIN A], the mortality in the assay with Spodoptera litura [1] stood at 100%; in the assay with Spodoptera litura [5], 28%; in the assay on Spodoptera litura [7], 85.33%; in the assay on Spodoptera litura [8], 98.28%; in the assay with Spodoptera litura [12], 28%; in the assay with Spodoptera litura [13], 93.55%. For the same compound, the mortality in the assay with Spodoptera litura [14] is reported as 57.33%; with Spodoptera litura [15], 70.21%. In addition, the AFI is 79.41% in the assay with Spodoptera litura [2], 70.49% in the assay with Spodoptera litura [3], 49.67% in the assay with Spodoptera litura [4] and 61.31% in the assay on Spodoptera litura [10]. Also, the LC90 in the assay with Spodoptera litura [11] was 3278.46 ppm; in the assay with Spodoptera litura [18], 412.78 ppm. Moreover, the median lethal concentration (LC50) in the assay on Spodoptera litura [11] was found to be 134 µg/mL (≈ 186 µM); in the assay with Spodoptera litura [18] it was 119 µg/mL (≈ 165 µM).
Consider `[C-]#[N+][C@@H]1[C@H]2c3c[nH]c4cccc(c34)C(C)(C)[C@H]2CC[C@@]1(C)C=C` [12-EPI-HAPALINDOLE J ISONITRILE], for which the Activity in the assay on Chironomus riparius is on record as 100%.

The mortality is the share of the test organisms that died. For orientation: LC50 means the concentration that kills 50% of the test population.
